Results taken from PubChem BioAssay (NCI).
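Five compound concentrations were applied to cells in 96-well plates for 48 hours; endpoints were derived by simple linear interpolation of the resulting dose-response curve. TGI denotes the concentration required for complete inhibition of growth.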

Tests used:
Assay in all cases: growth of human tumour cells (NCI), 48 h
[1] = tested on: 786-0 renal
[2] = tested on: A549 NSCLC
[3] = tested on: ACHN renal
[4] = tested on: CCRF-CEM leukemia
[5] = tested on: COLO 205 colon
[6] = tested on: DLD-1 colon
[7] = tested on: DMS 114 small cell lung
[8] = tested on: DMS 273 small cell lung
[9] = tested on: EKVX NSCLC
[10] = tested on: HCC-2998 colon
[11] = tested on: HCT-116 colon
[12] = tested on: HCT-15 colon
[13] = tested on: HL-60(TB) leukemia
[14] = tested on: HOP-18 NSCLC
[15] = tested on: HOP-92 NSCLC
[16] = tested on: HT29 colon
[17] = tested on: IGROV1 ovarian
[18] = tested on: K-562 leukemia
[19] = tested on: KM12 colon
[20] = tested on: KM20L2 colon
[21] = tested on: LOX IMVI melanoma
[22] = tested on: LXFL 529 NSCLC
[23] = tested on: M14 melanoma
[24] = tested on: M19-MEL melanoma
[25] = tested on: MOLT-4 leukemia
[26] = tested on: NCI-H23 lung
[27] = tested on: NCI-H460 lung
[28] = tested on: OVCAR-3 ovarian
[29] = tested on: OVCAR-4 ovarian
[30] = tested on: OVCAR-8 ovarian
[31] = tested on: RPMI-8226 leukemia
[32] = tested on: SF-295 CNS
[33] = tested on: SF-539 CNS
[34] = tested on: SK-MEL-2 melanoma
[35] = tested on: SK-MEL-28 melanoma
[36] = tested on: SK-MEL-5 melanoma
[37] = tested on: SK-OV-3 ovarian
[38] = tested on: SN12C renal
[39] = tested on: SNB-19 CNS
[40] = tested on: SNB-75 CNS
[41] = tested on: SNB-78 CNS
[42] = tested on: SW-620 colon
[43] = tested on: TK-10 renal
[44] = tested on: U251 CNS
[45] = tested on: UACC-62 melanoma
[46] = tested on: UO-31 renal
[47] = tested on: A498 renal
[48] = tested on: BT-549 breast
[49] = tested on: CAKI-1 renal
[50] = tested on: DU-145 prostate
[51] = tested on: HOP-62 NSCLC
[52] = tested on: HS 578T breast
[53] = tested on: MALME-3M melanoma
[54] = tested on: MCF7 breast
[55] = tested on: MDA-MB-231 breast
[56] = tested on: MDA-MB-435
[57] = tested on: MDA-N
[58] = tested on: NCI-H226 lung
[59] = tested on: NCI-H522 lung
[60] = tested on: NCI/ADR-RES ovarian
[61] = tested on: OVCAR-5 ovarian
[62] = tested on: PC-3 prostate
[63] = tested on: RXF 393 renal
[64] = tested on: SF-268 CNS
[65] = tested on: SR leukemia
[66] = tested on: T-47D breast
[67] = tested on: UACC-257 melanoma

Question: `COc1ccc(-c2oc3cc(O)c(OC)c(O)c3c(=O)c2OC2OC(CO)C(O)C(O)C2O)cc1` (stereo not given) was tested. Which TGI [1] did it give?
Answer: The TGI was > 100 µM.

Question: What about the TGI [2] of the same molecule?
Answer: Its TGI is > 100 µM.

Question: What about the TGI [3] of the same molecule?
Answer: Its TGI is > 100 µM.

Question: What about the TGI [4] of the same molecule?
Answer: Its TGI is > 100 µM.

Question: What about the TGI [5] of the same molecule?
Answer: Its TGI is > 100 µM.

Question: What about the TGI [6] of the same molecule?
Answer: The TGI was > 100 µM.

Question: What about the TGI [7] of the same molecule?
Answer: The TGI was > 100 µM.

Question: What about the TGI [8] of the same molecule?
Answer: Its TGI is > 100 µM.

Question: What about the TGI [9] of the same molecule?
Answer: Its TGI is > 100 µM.

Question: And the TGI [10]?
Answer: The TGI was > 100 µM.

Question: And the TGI [11]?
Answer: Its TGI is > 100 µM.

Question: And the TGI [12]?
Answer: The TGI was > 100 µM.

Question: What about the TGI [13] of the same molecule?
Answer: The TGI was > 100 µM.

Question: And the TGI [14]?
Answer: Its TGI is > 100 µM.

Question: And the TGI [15]?
Answer: The TGI was > 100 µM.

Question: What about the TGI [16] of the same molecule?
Answer: Its TGI is > 100 µM.

Question: And the TGI [17]?
Answer: The TGI was > 100 µM.

Question: What about the TGI [18] of the same molecule?
Answer: The TGI was > 100 µM.

Question: What about the TGI [19] of the same molecule?
Answer: The TGI was > 100 µM.

Question: And the TGI [20]?
Answer: Its TGI is > 100 µM.

Question: And the TGI [21]?
Answer: The TGI was > 100 µM.

Question: What about the TGI [22] of the same molecule?
Answer: Its TGI is > 100 µM.

Question: What about the TGI [23] of the same molecule?
Answer: Its TGI is > 100 µM.

Question: What about the TGI [24] of the same molecule?
Answer: The TGI was > 100 µM.

Question: And the TGI [25]?
Answer: Its TGI is > 100 µM.

Question: What about the TGI [26] of the same molecule?
Answer: Its TGI is > 100 µM.

Question: What about the TGI [27] of the same molecule?
Answer: Its TGI is > 100 µM.

Question: And the TGI [28]?
Answer: Its TGI is > 100 µM.

Question: What about the TGI [29] of the same molecule?
Answer: The TGI was > 100 µM.

Question: And the TGI [30]?
Answer: The TGI was > 100 µM.

Question: And the TGI [31]?
Answer: The TGI was > 100 µM.

Question: And the TGI [32]?
Answer: Its TGI is > 100 µM.

Question: What about the TGI [33] of the same molecule?
Answer: Its TGI is > 100 µM.

Question: And the TGI [34]?
Answer: The TGI was > 100 µM.

Question: What about the TGI [35] of the same molecule?
Answer: The TGI was > 100 µM.

Question: And the TGI [36]?
Answer: Its TGI is > 100 µM.

Question: What about the TGI [37] of the same molecule?
Answer: The TGI was > 100 µM.

Question: What about the TGI [38] of the same molecule?
Answer: The TGI was > 100 µM.

Question: What about the TGI [39] of the same molecule?
Answer: The TGI was > 100 µM.

Question: What about the TGI [40] of the same molecule?
Answer: Its TGI is > 100 µM.

Question: What about the TGI [41] of the same molecule?
Answer: The TGI was > 100 µM.

Question: And the TGI [42]?
Answer: The TGI was > 100 µM.

Question: What about the TGI [43] of the same molecule?
Answer: The TGI was > 100 µM.

Question: What about the TGI [44] of the same molecule?
Answer: Its TGI is > 100 µM.

Question: And the TGI [45]?
Answer: The TGI was > 100 µM.

Question: What about the TGI [46] of the same molecule?
Answer: Its TGI is > 100 µM.

Question: Which results are given for `OC1c2ccccc2[C@@H]2[C@H]1[C@@H](c1ccccc1)C1(Cc3ccccc3C1O)[C@H]2c1ccccc1` (stereo not given in full)?
Answer: TGI [1]: 8.28 µM; TGI [47]: 23.6 µM; TGI [2]: 14.2 µM; TGI [3]: 16.7 µM; TGI [48]: 28.6 µM; TGI [49]: 22.8 µM; TGI [4]: 12.7 µM; TGI [5]: 3.62 µM; TGI [50]: 22 µM; TGI [9]: 19.2 µM; TGI [10]: 4.58 µM; TGI [11]: 14.5 µM; TGI [12]: 15.1 µM; TGI [13]: 4.47 µM; TGI [51]: 22.9 µM; TGI [15]: 12.6 µM; TGI [52]: 25.1 µM; TGI [16]: 6.87 µM; TGI [17]: 16.6 µM; TGI [18]: 10.7 µM; TGI [19]: 8.25 µM; TGI [21]: 7.04 µM; TGI [23]: 17.1 µM; TGI [53]: 17.9 µM; TGI [54]: 4.7 µM; TGI [55]: 20.3 µM; TGI [56]: 7.73 µM; TGI [57]: 13.7 µM; TGI [25]: 8.57 µM; TGI [58]: 19.4 µM; TGI [26]: 18.4 µM; TGI [27]: 10.2 µM; TGI [59]: 14.2 µM; TGI [60]: 16.6 µM; TGI [28]: 6.27 µM; TGI [29]: 17.4 µM; TGI [61]: 23.2 µM; TGI [30]: 15.3 µM; TGI [62]: 8.87 µM; TGI [31]: 9.89 µM; TGI [63]: 4.83 µM; TGI [64]: 24.1 µM; TGI [32]: 18.9 µM; TGI [33]: 26.6 µM; TGI [34]: 20 µM; TGI [35]: 22.1 µM; TGI [36]: 18.2 µM; TGI [37]: 23 µM; TGI [38]: 3.29 µM; TGI [39]: 26.5 µM; TGI [40]: 21.5 µM; TGI [65]: 4.49 µM; TGI [42]: 17.4 µM; TGI [66]: 22.5 µM; TGI [43]: 29.7 µM; TGI [44]: 14.1 µM; TGI [67]: 11.1 µM; TGI [45]: 20.6 µM; TGI [46]: 20.3 µM
